# Measurements published in ChEMBL document CHEMBL3124857, “Encoded library technology as a source of hits for the discovery and lead optimization of a potent and selective class of bactericidal direct inhibitors of Mycobacterium tuberculosis InhA” (J Med Chem, 2014).
# The source made the active and inactive calls. No cut-off for these calls is given here.
# Experiments:
# [1] = system: Mycobacterium tuberculosis; test: Antitubercular activity against wild type Mycobacterium tuberculosis H37Rv ATCC 25618 assessed as growth inhibition after 6 days by resazurin dye-based assay; type: functional; conditions: H37Rv ATCC 25618, 144 h
# [2] = Drug degradation assessed as formation of 2-((2S,4R)-1-(benzofuran-3-carbonyl)-4-(3-ethyl-1-methyl-1H-pyrazole-5-carboxamido)pyrrolidine-2-carboxamido)acetic acid; type: physicochemical
# [3] = molecular target: T1, Enoyl-[acyl-carrier-protein] reductase [NADH] (Mycobacterium tuberculosis, UniProt P9WGR1); test: Inhibition of Mycobacterium tuberculosis full length biotinylated InhA (270 amino acids) using DDCoA as substrate assessed as NADH oxidation by fluorimetric analysis
# T1 sequence (P9WGR1 whole entry): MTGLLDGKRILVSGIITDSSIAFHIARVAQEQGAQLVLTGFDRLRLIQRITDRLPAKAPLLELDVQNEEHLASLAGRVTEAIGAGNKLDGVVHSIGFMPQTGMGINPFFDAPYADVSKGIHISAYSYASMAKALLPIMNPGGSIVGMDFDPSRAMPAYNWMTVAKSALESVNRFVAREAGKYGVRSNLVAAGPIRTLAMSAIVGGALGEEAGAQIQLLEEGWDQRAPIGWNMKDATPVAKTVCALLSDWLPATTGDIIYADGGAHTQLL
# [4] = Kinetic solubility of the compound after 1 hr by CLND assay; type: physicochemical
# [5] = system: Mycobacterium tuberculosis; test: Antitubercular activity against Mycobacterium tuberculosis H37Rv infected in C57BL/6 mouse assessed as reduction of bacterial CFU in lung at 30 mg/kg, po administered for 8 days measured 24 hrs post last dose relative to control; type: functional
# [6] = system: Mycobacterium tuberculosis; test: Bactericidal activity against Mycobacterium tuberculosis H37Rv assessed as log reduction of bacterial CFU at 1.2 ug/mL after 1 week; type: functional, organism-based
# HepG2 = test: Cytotoxicity against human HepG2 cells after 48 hrs by resazurin dye-based fluorescence assay; type: cell-based; conditions: HepG2, 48 h
# [7] = molecular target: Voltage-gated inwardly rectifying potassium channel KCNH2 (Homo sapiens, UniProt Q12809); test: Displacement of [3H]-dofetilide from human ERG after 1 hr by liquid scintillation counting analysis
# Voltage-gated inwardly rectifying potassium channel KCNH2, sequence (Q12809 whole entry): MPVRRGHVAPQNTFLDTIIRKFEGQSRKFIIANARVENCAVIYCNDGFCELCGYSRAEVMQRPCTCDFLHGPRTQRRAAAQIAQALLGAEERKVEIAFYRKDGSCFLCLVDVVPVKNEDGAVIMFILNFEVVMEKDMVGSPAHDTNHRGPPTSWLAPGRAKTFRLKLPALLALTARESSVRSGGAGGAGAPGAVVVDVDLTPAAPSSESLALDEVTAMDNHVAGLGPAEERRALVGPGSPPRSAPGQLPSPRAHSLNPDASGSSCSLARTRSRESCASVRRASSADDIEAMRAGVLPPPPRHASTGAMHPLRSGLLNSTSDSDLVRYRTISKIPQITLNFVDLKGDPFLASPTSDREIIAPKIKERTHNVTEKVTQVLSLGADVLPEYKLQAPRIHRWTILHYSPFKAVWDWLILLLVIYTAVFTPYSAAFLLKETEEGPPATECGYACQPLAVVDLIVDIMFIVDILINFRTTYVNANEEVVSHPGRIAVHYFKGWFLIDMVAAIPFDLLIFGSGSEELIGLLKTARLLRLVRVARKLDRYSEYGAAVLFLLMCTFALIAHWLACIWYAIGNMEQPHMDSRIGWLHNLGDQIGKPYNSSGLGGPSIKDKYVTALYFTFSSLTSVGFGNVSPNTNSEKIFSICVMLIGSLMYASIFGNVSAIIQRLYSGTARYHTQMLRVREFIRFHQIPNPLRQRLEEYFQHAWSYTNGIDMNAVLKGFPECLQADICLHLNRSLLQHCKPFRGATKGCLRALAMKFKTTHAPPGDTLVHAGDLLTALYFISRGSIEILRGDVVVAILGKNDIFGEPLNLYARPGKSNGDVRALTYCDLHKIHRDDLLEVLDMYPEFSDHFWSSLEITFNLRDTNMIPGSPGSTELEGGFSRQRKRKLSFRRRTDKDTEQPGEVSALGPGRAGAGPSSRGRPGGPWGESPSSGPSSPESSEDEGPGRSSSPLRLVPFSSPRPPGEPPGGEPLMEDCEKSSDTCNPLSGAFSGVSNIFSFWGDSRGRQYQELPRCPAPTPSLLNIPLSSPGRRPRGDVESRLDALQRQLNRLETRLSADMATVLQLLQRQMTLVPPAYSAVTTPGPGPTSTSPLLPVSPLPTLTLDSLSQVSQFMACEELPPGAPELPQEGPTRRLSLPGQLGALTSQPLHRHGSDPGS
# Streptococcus pneumoniae = test: Antibacterial activity against Streptococcus pneumoniae assessed as growth inhibition by broth microdilution assay; type: functional
# Cytochrome P450 2C9 = Cytochrome P450 2C9 (Homo sapiens, UniProt P11712); test: Inhibition of human CYP2C9 by fluorescence assay; type: ADME
# Cytochrome P450 2C9, sequence (P11712 whole entry): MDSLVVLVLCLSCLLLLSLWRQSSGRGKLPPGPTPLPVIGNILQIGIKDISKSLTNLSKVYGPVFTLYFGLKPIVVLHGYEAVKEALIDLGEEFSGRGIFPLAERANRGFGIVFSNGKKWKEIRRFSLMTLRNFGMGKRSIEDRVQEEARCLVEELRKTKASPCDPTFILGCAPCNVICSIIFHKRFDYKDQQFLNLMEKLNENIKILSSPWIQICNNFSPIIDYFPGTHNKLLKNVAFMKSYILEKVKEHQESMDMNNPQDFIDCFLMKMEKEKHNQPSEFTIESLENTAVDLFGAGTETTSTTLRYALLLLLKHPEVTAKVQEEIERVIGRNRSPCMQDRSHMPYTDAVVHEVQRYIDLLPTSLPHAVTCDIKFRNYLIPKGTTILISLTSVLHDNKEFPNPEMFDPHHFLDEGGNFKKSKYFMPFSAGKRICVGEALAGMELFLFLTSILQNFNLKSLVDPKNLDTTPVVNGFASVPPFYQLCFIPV
# Hepatocyte [8] = test: Drug metabolism in human hepatocytes assessed as N-dealkylated ethylamide metabolite formation; type: ADME, cell-based
# Hepatocyte [9] = test: Drug metabolism in mouse hepatocytes assessed as oxidized metabolite formation; type: ADME, cell-based
# [10] = Half life in mouse hepatocytes at 10 uM; type: ADME, cell-based, Hepatocyte
# [11] = Plasma protein binding in mouse at 1 uM after 4 to 6 hrs by LC-MS/MS analysis; type: ADME, cell-free; conditions: read-out: PPB (converted)
# Cytochrome P450 3A4 = Cytochrome P450 3A4 (Homo sapiens, UniProt P08684); test: Inhibition of human CYP3A4 by fluorescence assay; type: ADME
# Cytochrome P450 3A4, sequence (P08684 whole entry): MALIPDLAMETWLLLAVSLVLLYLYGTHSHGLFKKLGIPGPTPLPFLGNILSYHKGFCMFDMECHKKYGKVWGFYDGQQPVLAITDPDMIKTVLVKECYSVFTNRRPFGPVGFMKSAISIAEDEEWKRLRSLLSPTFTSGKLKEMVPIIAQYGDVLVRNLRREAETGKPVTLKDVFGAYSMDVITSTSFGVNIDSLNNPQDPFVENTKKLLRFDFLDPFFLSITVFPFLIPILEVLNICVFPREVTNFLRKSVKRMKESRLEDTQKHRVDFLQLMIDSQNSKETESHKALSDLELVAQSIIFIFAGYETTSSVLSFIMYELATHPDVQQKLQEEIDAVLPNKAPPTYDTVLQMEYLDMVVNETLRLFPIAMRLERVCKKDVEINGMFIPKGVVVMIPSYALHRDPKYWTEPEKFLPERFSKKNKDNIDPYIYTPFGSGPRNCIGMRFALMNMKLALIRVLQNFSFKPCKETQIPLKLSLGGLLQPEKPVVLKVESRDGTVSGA
# Liver microsome = test: Intrinsic clearance in human liver microsomes at 0.5 uM; type: ADME
# Streptococcus pyogenes = test: Antibacterial activity against Streptococcus pyogenes assessed as growth inhibition by broth microdilution assay; type: functional
# Escherichia coli = test: Antibacterial activity against Escherichia coli assessed as growth inhibition by broth microdilution assay; type: functional
# [12] = Intrinsic clearance in mouse hepatocytes at 1 uM; type: ADME, cell-based, Hepatocyte; conditions: read-out: CLH
# Enterococcus faecium = test: Antibacterial activity against Enterococcus faecium assessed as growth inhibition by broth microdilution assay; type: functional
# Moraxella catarrhalis = test: Antibacterial activity against Moraxella catarrhalis assessed as growth inhibition by broth microdilution assay; type: functional
# Cytochrome P450 2D6 = Cytochrome P450 2D6 (Homo sapiens, UniProt P10635); test: Inhibition of human CYP2D6 by fluorescence assay; type: ADME
# Cytochrome P450 2D6, sequence (P10635 whole entry): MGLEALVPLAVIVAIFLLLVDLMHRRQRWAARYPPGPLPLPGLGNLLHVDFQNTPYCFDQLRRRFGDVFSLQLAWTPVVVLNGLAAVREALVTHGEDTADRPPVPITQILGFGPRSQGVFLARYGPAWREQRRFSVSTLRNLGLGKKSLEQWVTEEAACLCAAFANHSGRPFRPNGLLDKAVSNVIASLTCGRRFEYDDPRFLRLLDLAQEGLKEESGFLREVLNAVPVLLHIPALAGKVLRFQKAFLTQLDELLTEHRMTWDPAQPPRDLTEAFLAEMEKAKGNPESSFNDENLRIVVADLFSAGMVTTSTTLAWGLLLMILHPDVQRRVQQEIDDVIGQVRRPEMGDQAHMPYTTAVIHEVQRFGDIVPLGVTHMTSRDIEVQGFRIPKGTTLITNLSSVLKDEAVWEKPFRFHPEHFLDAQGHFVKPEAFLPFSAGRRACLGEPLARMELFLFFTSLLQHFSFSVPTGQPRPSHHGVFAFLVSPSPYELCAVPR
# Cytochrome P450 2C19 = Cytochrome P450 2C19 (Homo sapiens, UniProt P33261); test: Inhibition of human CYP2C19 by fluorescence assay; type: ADME
# Cytochrome P450 2C19, sequence (P33261 whole entry): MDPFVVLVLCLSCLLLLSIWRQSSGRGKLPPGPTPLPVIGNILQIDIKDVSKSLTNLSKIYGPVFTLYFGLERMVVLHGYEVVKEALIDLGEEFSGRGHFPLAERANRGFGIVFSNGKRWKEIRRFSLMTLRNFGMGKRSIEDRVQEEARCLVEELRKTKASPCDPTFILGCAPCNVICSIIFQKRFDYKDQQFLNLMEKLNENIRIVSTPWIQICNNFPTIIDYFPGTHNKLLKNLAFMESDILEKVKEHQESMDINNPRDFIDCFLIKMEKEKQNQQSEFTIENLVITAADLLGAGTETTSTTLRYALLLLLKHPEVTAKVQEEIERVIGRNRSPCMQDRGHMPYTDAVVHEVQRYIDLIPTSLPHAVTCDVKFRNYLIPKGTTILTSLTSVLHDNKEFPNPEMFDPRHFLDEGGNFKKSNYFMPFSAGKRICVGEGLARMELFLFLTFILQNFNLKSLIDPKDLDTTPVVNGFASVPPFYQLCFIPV
# [13] = Intrinsic clearance in human hepatocytes at 1 uM; type: ADME, cell-based, Hepatocyte; conditions: read-out: CLH
# [14] = Intrinsic clearance in mouse liver microsomes at 0.5 uM; type: ADME, Microsome
# Enterococcus faecalis = test: Antibacterial activity against Enterococcus faecalis assessed as growth inhibition by broth microdilution assay; type: functional
# Hepatocyte [15] = test: Drug metabolism in human hepatocytes assessed as oxidized metabolite formation; type: ADME, cell-based
# [16] = Lipophilicity, log D of the compound at pH 7.4 by chromatographic analysis; type: physicochemical; conditions: buffer
# Hepatocyte [17] = test: Drug metabolism in mouse hepatocytes assessed as N-dealkylated ethylamide metabolite formation; type: ADME, cell-based
# [18] = Permeability of the compound by artificial membrane permeability assay; type: physicochemical; conditions: PAMPA; read-out: permeability
# [19] = Half life in mouse liver microsomes at 0.5 uM; type: ADME, Microsome
# Hepatocyte [20] = test: Drug metabolism in mouse hepatocytes assessed as N-dealkylated pyrazole metabolite formation; type: ADME, cell-based
# Haemophilus influenzae = test: Antibacterial activity against Haemophilus influenzae assessed as growth inhibition by broth microdilution assay; type: functional
# Hepatocyte [21] = test: Drug metabolism in human hepatocytes assessed as N-dealkylated pyrazole metabolite formation; type: ADME, cell-based
# Cytochrome P450 1A2 = molecular target: T2, Cytochrome P450 1A2 (Homo sapiens, UniProt P05177); test: Inhibition of human CYP1A2 by fluorescence assay; type: ADME
# T2 sequence (P05177 whole entry): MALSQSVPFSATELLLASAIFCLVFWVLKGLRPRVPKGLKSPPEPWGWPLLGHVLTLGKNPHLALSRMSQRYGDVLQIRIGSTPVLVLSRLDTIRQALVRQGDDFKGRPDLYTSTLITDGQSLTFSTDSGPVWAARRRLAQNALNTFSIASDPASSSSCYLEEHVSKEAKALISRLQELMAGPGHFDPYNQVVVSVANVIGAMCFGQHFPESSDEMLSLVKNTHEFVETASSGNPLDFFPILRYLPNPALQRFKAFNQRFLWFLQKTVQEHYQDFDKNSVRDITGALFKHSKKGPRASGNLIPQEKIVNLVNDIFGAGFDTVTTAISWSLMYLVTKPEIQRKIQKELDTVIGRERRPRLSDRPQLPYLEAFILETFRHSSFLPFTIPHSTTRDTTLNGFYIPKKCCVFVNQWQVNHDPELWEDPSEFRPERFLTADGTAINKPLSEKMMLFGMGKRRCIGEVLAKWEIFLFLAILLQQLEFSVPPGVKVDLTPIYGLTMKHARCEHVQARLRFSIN
# [22] = Half life in human hepatocytes at 10 uM; type: ADME, cell-based, Hepatocyte
# [23] = Half life in human liver microsomes at 0.5 uM; type: ADME
compound,measurement,setting,value
CCc1cc(C(=O)N[C@@H]2C[C@@H](C(=O)NCC(=O)OC)N(C(=O)c3coc4ccccc34)C2)n(C)n1,MIC90,[1],0.5 µM
same,Stability,[2],Unstable
same,IC50,[3],5 nM
same,Kinetic_solubility,[4]; 1 h,soluble
COc1c(N2C[C@@H]3CCCN[C@@H]3C2)c(F)cc2c(=O)c(C(=O)O)cn(C3CC3)c12 [MOXIFLOXACIN],fold change (FC),[5],3.48
same,Activity,[6],Active
CCc1cc(C(=O)N[C@@H]2C[C@@H](C(=O)NCCN(C)C)N(C(=O)c3coc4ccccc34)C2)n(C)n1,MIC90,[1],> 31 µM
same,IC50,[3],170 nM
CCc1cc(C(=O)N[C@@H]2C[C@@H](C(=O)N[C@H](CO)Cc3ccccc3)N(C(=O)c3coc4ccccc34)C2)n(C)n1,MIC90,[1],1 µM
same,IC50,[3],112 nM
CCc1cc(C(=O)N[C@@H]2C[C@@H](C(=O)NCC3CCCO3)N(C(=O)c3coc4ccccc34)C2)n(C)n1 (stereo not given in full),MIC90,[1],4 µM
same,IC50,[3],45 nM
CCc1cc(C(=O)N[C@@H]2C[C@@H](C(=O)NCc3ccccc3)N(C(=O)c3coc4ccccc34)C2)n(C)n1,MIC90,[1],4 µM
same,IC50,[3],41 nM
CCc1cc(C(=O)N[C@@H]2C[C@@H](C(=O)Nc3ccc4c(c3)B(O)OC4)N(C(=O)c3coc4ccccc34)C2)n(C)n1,MIC90,[1],4 µM
same,IC50,[3],26 nM
CCc1cc(C(=O)N[C@@H]2C[C@@H](C(=O)NCc3ccccn3)N(C(=O)c3coc4ccccc34)C2)n(CC)n1,MIC90,[1],0.7 µM
same,IC50,[3],2 nM
CCc1cc(C(=O)N[C@@H]2C[C@@H](C(=O)NCc3nc4ccccc4o3)N(C(=O)c3coc4ccccc34)C2)n(C)n1,MIC90,[1],0.5 µM
same,IC50,[3],3 nM
CCCc1cc(C(=O)N[C@@H]2C[C@@H](C(=O)NCC(=O)OC)N(C(=O)c3coc4ccccc34)C2)n(C)n1,MIC90,[1],0.5 µM
same,IC50,[3],22 nM
CCc1cc(C(=O)N[C@@H]2C[C@@H](C(=O)Nc3ccccn3)N(C(=O)c3coc4ccccc34)C2)n(C)n1,MIC90,[1],4 µM
same,IC50,[3],11 nM
CCc1cc(C(=O)N[C@@H]2C[C@@H](C(=O)Nc3cnn(CC)n3)N(C(=O)c3coc4ccccc34)C2)n(C)n1,MIC90,[1],4 µM
same,IC50,[3],3 nM
CCc1cc(C(=O)N[C@@H]2C[C@@H](C(=O)NCc3ccc(OC(F)(F)F)cc3)N(C(=O)c3coc4ccccc34)C2)n(C)n1,MIC90,[1],23.4 µM
same,IC50,[3],5 nM
CCc1cc(C(=O)N[C@@H]2C[C@@H](C(=O)NC3CCCC3)N(C(=O)c3coc4ccccc34)C2)n(C)n1,MIC90,[1],4 µM
same,IC50,[3],40 nM
CCNC(=O)[C@@H]1C[C@@H](NC(=O)c2cc(CC)nn2C)CN1C(=O)c1coc2ccccc12,IC50,HepG2,> 50000 nM
same,IC50,[7],> 50000 nM
same,MIC,Streptococcus pneumoniae,> 64 µM
same,IC50,Cytochrome P450 2C9,> 50000 nM
same,Drug metabolism,Hepatocyte [8],Active
same,Drug metabolism,Hepatocyte [9],Active
same,half-life at 10 µM,[10],27 min
same,fraction unbound at 1 µM,[11],0.144
same,IC50,Cytochrome P450 3A4,> 50000 nM
same,CLH,Liver microsome,0.7 mL/min/g
same,MIC,Streptococcus pyogenes,> 64 µM
same,MIC,Escherichia coli,> 64 µM
same,CLint scaled at 1 µM,[12],538 mL/min/kg
same,MIC,Enterococcus faecium,> 64 µM
same,MIC,Moraxella catarrhalis,> 64 µM
same,IC50,Cytochrome P450 2D6,> 50000 nM
same,IC50,Cytochrome P450 2C19,> 50000 nM
same,CLint scaled at 1 µM,[13],19 mL/min/kg
same,CLH,[14],2.6 mL/min/g
same,MIC,[1],8 µM
same,MIC,Enterococcus faecalis,> 64 µM
same,Drug metabolism,Hepatocyte [15],Active
same,chromatographic logD,[16],2.93
same,IC50,[3],34 nM
same,Drug metabolism,Hepatocyte [17],Active
same,Papp,[18],13 ×10⁻⁶ cm/s
same,half-life at 0.5 µM,[19],28 min
same,Drug metabolism,Hepatocyte [20],Active
same,MIC,Haemophilus influenzae,> 64 µM
same,Drug metabolism,Hepatocyte [21],Active
same,solubility kinetic at 1 h,[4]; read-out: Kinetic_solubility,> 448 µM
same,IC50,Cytochrome P450 1A2,> 50000 nM
same,half-life at 10 µM,[22],227 min
same,half-life at 0.5 µM,[23],> 30 min
CCc1cc(C(=O)N[C@@H]2C[C@@H](C(=O)NCc3ccc(C)o3)N(C(=O)c3coc4ccccc34)C2)n(C)n1,MIC90,[1],1.5 µM
same,IC50,[3],21 nM
CCNC[C@@H]1C[C@@H](NC(=O)c2cc(CC)nn2C)CN1C(=O)c1coc2ccccc12,MIC90,[1],> 31 µM
same,IC50,[3],440 nM
CCc1cc(C(=O)N[C@@H]2C[C@@H](C(=O)Nc3ccn(Cc4ccc(F)cc4)n3)N(C(=O)c3coc4ccccc34)C2)n(C)n1,MIC90,[1],4 µM
same,IC50,[3],5 nM
